Experimental findings from patent EP0908457B1, “3-(1,2-benzisothiazol- and isoxazol-5-Y1)-2,4(1H,3H)-pyrimidinedione or thione and 3-(1,2-benzisothiazol- and isoxazol-5-y1)-4(3H)-pyrimidinone or thione herbicidal agents” (BASF AKTIENGESELLSCHAFT, priority 1997, dated 1999) are described below.

One data set deals with Cyperus iria. Nature of the data set: Preemergence weed control under flooded paddy conditions, CYPIR (Rice Flatsedge). Further: meaning of each grade not given here. The data set is classed as in vivo. Conditions: preemergence weeds, flooded paddy, rated three to four weeks after treatment.
Data set [1] has as its system Oryza sativa, (L.) Tebonnet. Nature of the data set: Rice tolerance to post-transplant applications under flooded paddy conditions (Example 187), ORYSAT (Rice, Tebonnet). Conditions: rated three to four weeks after treatment.
The subject of a further data set is Sagittaria pygmaea, L. Nature of the data set: Preemergence weed control under flooded paddy conditions, SAGPY (Arrowhead (Pygmaea)). Further: meaning of each grade not given here. As to conditions: preemergence weeds, flooded paddy, rated three to four weeks after treatment. The format is in vivo.
Data set [2] concerns Monochoria vaginalis, Presl. Nature of the data set: Preemergence weed control under flooded paddy conditions, MOOVA (Monochoria). Further: meaning of each grade not given here. The format is in vivo. As to conditions: preemergence weeds, flooded paddy, rated three to four weeks after treatment.
Data set [3] concerns Echinochloa oryzoides (Ard.) Fritsch. Description: Preemergence weed control under flooded paddy conditions, ECHORC (Watergrass (Calif.)). Further: meaning of each grade not given here. As to conditions: preemergence weeds, flooded paddy, rated three to four weeks after treatment. The format is in vivo.
The subject of data set [4] is Cyperus serotinus, Rottb. Description: Preemergence weed control under flooded paddy conditions, CYPSE (Flatsedge). Further: meaning of each grade not given here. The data set is classed as in vivo. As to conditions: preemergence weeds, rated three to four weeks after treatment.

For `C=CCOCc1nsc2ccc(-n3c(=O)cc(C(F)(F)F)n(C)c3=O)cc12` [Example 196, 3-{3-[(Allyloxy)methyl]-1,2-benzisothiazol-5-yl}-1-methyl-6-(trifluoromethyl)-2,4(1H,3H)-pyrimidinedione], the “herbicidal effect rating, CYPIR” value in the data set on Cyperus iria (0.0313 kg/ha) was 0.0; with Cyperus iria (0.0625 kg/ha) it was 0.0; in the data set with Cyperus iria (0.1250 kg/ha), 1.0; with Cyperus iria (0.2500 kg/ha), 4.0. Besides, the “herbicidal effect rating, ORYSAT (rice tolerance)” value (“herbicidal effect rating, ORYSAT” below) is recorded as 4.0 in data set [1] (0.0313 kg/ha), 6.0 in data set [1] (0.0625 kg/ha), 8.0 in data set [1] (0.1250 kg/ha) and 8.0 in data set [1] (0.2500 kg/ha). The “herbicidal effect rating, SAGPY” value was 0.0 in the data set with Sagittaria pygmaea, L. (0.0313 kg/ha); 0.0 with Sagittaria pygmaea, L. (0.0625 kg/ha); 0.0 in the data set on Sagittaria pygmaea, L. (0.1250 kg/ha); 0.0 in the data set with Sagittaria pygmaea, L. (0.2500 kg/ha). Further, the “herbicidal effect rating, MOOVA” value in data set [2] (0.0313 kg/ha), in data set [2] (0.0625 kg/ha), in data set [2] (0.1250 kg/ha) and in data set [2] (0.2500 kg/ha) was 9.0 throughout. In addition, the “herbicidal effect rating, ECHORC” value in data set [3] (0.0313 kg/ha) stood at 0.0; in data set [3] (0.0625 kg/ha) it was 2.0; in data set [3] (0.1250 kg/ha) it was 4.0; in data set [3] (0.2500 kg/ha) it was 4.0. Besides, the “herbicidal effect rating, CYPSE” value turned out to be 2.0 in data set [4] (0.0313 kg/ha), 4.0 in data set [4] (0.0625 kg/ha), 6.0 in data set [4] (0.1250 kg/ha) and 9.0 in data set [4] (0.2500 kg/ha).
Turning to `Cn1c(C(F)(F)F)cc(=O)n(-c2ccc3snc(COCCCl)c3c2)c1=O` [Example 198, 3-{3-[(2-Chloroethoxy)methyl]-1,2-benzisothiazol-5-yl}-1-methyl-6-(trifluoromethyl)-2,4(1H,3H)-pyrimidinedione], the “herbicidal effect rating, CYPIR” value was 0.0 in the data set with Cyperus iria (0.0313 kg/ha), 2.0 with Cyperus iria (0.0625 kg/ha), 4.0 in the data set on Cyperus iria (0.1250 kg/ha) and 7.0 in the data set with Cyperus iria (0.2500 kg/ha). Moreover, the “herbicidal effect rating, ORYSAT” value in data set [1] (0.0313 kg/ha) came out at 4.0; in data set [1] (0.0625 kg/ha) it was 7.0; in data set [1] (0.1250 kg/ha), 8.0; in data set [1] (0.2500 kg/ha) it was 9.0. Besides, the “herbicidal effect rating, SAGPY” value with Sagittaria pygmaea, L. (0.0313 kg/ha) is reported as 0.0; in the data set with Sagittaria pygmaea, L. (0.0625 kg/ha) it was 0.0; in the data set with Sagittaria pygmaea, L. (0.1250 kg/ha), 2.0; with Sagittaria pygmaea, L. (0.2500 kg/ha) it was 4.0. For the same molecule, the “herbicidal effect rating, MOOVA” value in data set [2] (0.0313 kg/ha), in data set [2] (0.0625 kg/ha), in data set [2] (0.1250 kg/ha) and in data set [2] (0.2500 kg/ha) was 9.0 each time. The “herbicidal effect rating, ECHORC” value in data set [3] (0.0313 kg/ha) came out at 4.0; in data set [3] (0.0625 kg/ha) it was 6.0; in data set [3] (0.1250 kg/ha) it was 9.0; in data set [3] (0.2500 kg/ha), 9.0. The “herbicidal effect rating, CYPSE” value in data set [4] (0.0313 kg/ha) came out at 0.0; in data set [4] (0.0625 kg/ha), 2.0; in data set [4] (0.1250 kg/ha), 4.0; in data set [4] (0.2500 kg/ha), 8.0.
As to `Cn1c(C(F)(F)F)cc(=O)n(-c2ccc3snc(C(CCl)CCl)c3c2)c1=O` [Example 199, 3-{3-[2-Chloro-1-(chloromethyl)ethyl]-1,2-benzisothiazol-5-yl}-1-methyl-6-(trifluoromethyl)-2,4(1H,3H)-pyrimidinedione], the “herbicidal effect rating, CYPIR” value in the data set with Cyperus iria (0.0313 kg/ha) came out at 0.0; in the data set with Cyperus iria (0.0625 kg/ha), 2.0; with Cyperus iria (0.1250 kg/ha), 4.0; with Cyperus iria (0.2500 kg/ha) it was 8.0. The “herbicidal effect rating, ORYSAT” value is on record as 3.0 in data set [1] (0.0313 kg/ha), 4.0 in data set [1] (0.0625 kg/ha), 6.0 in data set [1] (0.1250 kg/ha) and 8.0 in data set [1] (0.2500 kg/ha). In addition, the “herbicidal effect rating, SAGPY” value in the data set with Sagittaria pygmaea, L. (0.0313 kg/ha) is recorded as 0.0; in the data set on Sagittaria pygmaea, L. (0.0625 kg/ha) it was 0.0; in the data set with Sagittaria pygmaea, L. (0.1250 kg/ha), 0.0; in the data set on Sagittaria pygmaea, L. (0.2500 kg/ha) it was 0.0. For the same molecule, the “herbicidal effect rating, MOOVA” value in data set [2] (0.0313 kg/ha) is reported as 8.0; in data set [2] (0.0625 kg/ha), 9.0; in data set [2] (0.1250 kg/ha), 9.0; in data set [2] (0.2500 kg/ha), 9.0. In addition, the “herbicidal effect rating, ECHORC” value in data set [3] (0.0313 kg/ha) is given as 2.0; in data set [3] (0.0625 kg/ha) it was 4.0; in data set [3] (0.1250 kg/ha), 7.0; in data set [3] (0.2500 kg/ha), 7.0. Also, the “herbicidal effect rating, CYPSE” value in data set [4] (0.0313 kg/ha), in data set [4] (0.0625 kg/ha), in data set [4] (0.1250 kg/ha) and in data set [4] (0.2500 kg/ha) was 0.0 each time.
In the case of `CCOCCOCc1nsc2ccc(-n3c(=O)cc(C(F)(F)F)n(C)c3=O)cc12` [Example 200, 3-{3-[(2-Ethoxyethoxy)methyl]-1,2-benzisothiazol-5-yl}-1-methyl-6-(trifluoromethyl)-2,4(1H,3H)-pyrimidinedione], the “herbicidal effect rating, CYPIR” value in the data set on Cyperus iria (0.0313 kg/ha) is given as 4.0; in the data set with Cyperus iria (0.0625 kg/ha), 6.0; in the data set on Cyperus iria (0.1250 kg/ha), 7.0; with Cyperus iria (0.2500 kg/ha), 8.0. Besides, the “herbicidal effect rating, ORYSAT” value in data set [1] (0.0313 kg/ha) is 7.0; in data set [1] (0.0625 kg/ha), 7.0; in data set [1] (0.1250 kg/ha), 9.0; in data set [1] (0.2500 kg/ha), 9.0. Further, the “herbicidal effect rating, SAGPY” value is recorded as 0.0 with Sagittaria pygmaea, L. (0.0313 kg/ha); 0.0 in the data set with Sagittaria pygmaea, L. (0.0625 kg/ha); 0.0 in the data set with Sagittaria pygmaea, L. (0.1250 kg/ha); 4.0 in the data set on Sagittaria pygmaea, L. (0.2500 kg/ha). In addition, the “herbicidal effect rating, MOOVA” value in data set [2] (0.0313 kg/ha), in data set [2] (0.0625 kg/ha), in data set [2] (0.1250 kg/ha) and in data set [2] (0.2500 kg/ha) was 9.0 in each case. The “herbicidal effect rating, ECHORC” value in data set [3] (0.0313 kg/ha) is 0.0; in data set [3] (0.0625 kg/ha), 2.0; in data set [3] (0.1250 kg/ha), 6.0; in data set [3] (0.2500 kg/ha), 9.0. For the same molecule, the “herbicidal effect rating, CYPSE” value in data set [4] (0.0313 kg/ha) was determined as 0.0; in data set [4] (0.0625 kg/ha), 0.0; in data set [4] (0.1250 kg/ha) it was 2.0; in data set [4] (0.2500 kg/ha), 7.0.
Regarding `CC(C)SCc1nsc2ccc(-n3c(=O)cc(C(F)(F)F)n(C)c3=O)cc12` [Example 202, 3-{3-[(Isopropylthio)methyl]-1,2-benzisothiazol-5-yl]-1-methyl-6-(trifluoromethyl)-2,4(1H,3H)-pyrimidinedione], the “herbicidal effect rating, CYPIR” value in the data set on Cyperus iria (0.0313 kg/ha), in the data set on Cyperus iria (0.0625 kg/ha), with Cyperus iria (0.1250 kg/ha) and with Cyperus iria (0.2500 kg/ha) was 9.0 in each case. In addition, the “herbicidal effect rating, ORYSAT” value worked out at 3.0 in data set [1] (0.0313 kg/ha), 4.0 in data set [1] (0.0625 kg/ha), 5.0 in data set [1] (0.1250 kg/ha) and 6.0 in data set [1] (0.2500 kg/ha). The “herbicidal effect rating, SAGPY” value in the data set on Sagittaria pygmaea, L. (0.0313 kg/ha) is given as 0.0; in the data set with Sagittaria pygmaea, L. (0.0625 kg/ha) it was 0.0; in the data set on Sagittaria pygmaea, L. (0.1250 kg/ha), 0.0; in the data set on Sagittaria pygmaea, L. (0.2500 kg/ha), 0.0. The “herbicidal effect rating, MOOVA” value in data set [2] (0.0313 kg/ha), in data set [2] (0.0625 kg/ha), in data set [2] (0.1250 kg/ha) and in data set [2] (0.2500 kg/ha) was 0.0 each time. Moreover, the “herbicidal effect rating, ECHORC” value is listed as 1.0 in data set [3] (0.0313 kg/ha), 1.0 in data set [3] (0.0625 kg/ha), 2.0 in data set [3] (0.1250 kg/ha) and 2.0 in data set [3] (0.2500 kg/ha). Moreover, the “herbicidal effect rating, CYPSE” value in data set [4] (0.0313 kg/ha), in data set [4] (0.0625 kg/ha), in data set [4] (0.1250 kg/ha) and in data set [4] (0.2500 kg/ha) was 0.0 each time.
With `Cn1c(C(F)(F)F)cc(=O)n(-c2ccc3snc(COCC(F)F)c3c2)c1=O` [Example 203, 3-{3-[(2,2-Difluoroethoxy)methyl]-1,2-benzisothiazol-5-yl}-1-methyl-6-(trifluoromethyl)-2,4(1H,3H)-pyrimidinedione], the “herbicidal effect rating, CYPIR” value in the data set on Cyperus iria (0.0313 kg/ha), in the data set on Cyperus iria (0.0625 kg/ha), in the data set with Cyperus iria (0.1250 kg/ha) and in the data set with Cyperus iria (0.2500 kg/ha) was 9.0 throughout. The “herbicidal effect rating, ORYSAT” value in data set [1] (0.0313 kg/ha) is 4.0; in data set [1] (0.0625 kg/ha), 6.0; in data set [1] (0.1250 kg/ha), 6.0; in data set [1] (0.2500 kg/ha) it was 7.0. Also, the “herbicidal effect rating, SAGPY” value is 0.0 in the data set with Sagittaria pygmaea, L. (0.0313 kg/ha); 0.0 in the data set on Sagittaria pygmaea, L. (0.0625 kg/ha); 2.0 with Sagittaria pygmaea, L. (0.1250 kg/ha); 4.0 in the data set with Sagittaria pygmaea, L. (0.2500 kg/ha). Moreover, the “herbicidal effect rating, MOOVA” value in data set [2] (0.0313 kg/ha) was found to be 0.0; in data set [2] (0.0625 kg/ha) it was 0.0; in data set [2] (0.1250 kg/ha), 2.0; in data set [2] (0.2500 kg/ha) it was 8.0. Further, the “herbicidal effect rating, ECHORC” value is listed as 0.0 in data set [3] (0.0313 kg/ha), 0.0 in data set [3] (0.0625 kg/ha), 2.0 in data set [3] (0.1250 kg/ha) and 4.0 in data set [3] (0.2500 kg/ha). Also, the “herbicidal effect rating, CYPSE” value in data set [4] (0.0313 kg/ha) was 0.0; in data set [4] (0.0625 kg/ha), 0.0; in data set [4] (0.1250 kg/ha), 2.0; in data set [4] (0.2500 kg/ha) it was 6.0.
